Earlier results in US6736837B2, “Method for inducing hypothermia for treating neurological disorders” (priority 1997, dated 2004).
Like-named read-outs stand apart in the source and are kept apart here.

Tested on: tumors
Settings: for effect on tumor size: same dose

For `O=c1[nH]cc(F)c(=O)[nH]1` [5-FU, 5-fluoruracil], the effect on tumors (hamsters, 50 mg/kg, during hypothermia with the tumors maintained at normal body temperature) is listed as “regression and disappearance of tumors”, the “effect on tumor size” value (hypothermic animals whose tumors were also hypothermic) is listed as “did not affect tumor size” and the “effect on tumor size” value (tumor-bearing animals that were not made hypothermic) is listed as “did not affect tumor size”.
